Reference: PubChem BioAssay AID330 (DTP/NCI, 2004)
Several values for one entry are separate records, joined by “and”; a condition that tells them apart may be missing. Equal values may be shown once. Toxic doses and inconclusive results are not listed. The calls were made as follows: active = survival T/C of 150% or more; inactive = T/C below 125% in these data.

Test system: P388 leukemia ip, CD2F1 mice, survival T/C
Assay: NCI In Vivo Anticancer Drug Screen. Data for tumor model P388 Leukemia (intraperitoneal) in CD2F1 (CDF1) mice
Details: endpoint: median survival time, higher = longer survival
In short: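 Mice carrying the transplanted tumor received test compound or vehicle. Survival was recorded in each group, and the value is the treated-group measurement divided by that of the vehicle-treated control group.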

[1] = dose: 50.0 mg/kg/injection, schedule: Q01DX005 (ip), vehicle: Klucel (hydroxypropylcellulose) (HPC)
[2] = dose: 100.0 mg/kg/injection, schedule: Q01DX005 (ip), vehicle: Klucel (hydroxypropylcellulose) (HPC)
[3] = dose: 100.0 mg/kg/injection, schedule: Q04DX002 (ip), vehicle: saline with Tween-80
[4] = dose: 200.0 mg/kg/injection, schedule: Q04DX002 (ip), vehicle: saline with Tween-80
[5] = dose: 400.0 mg/kg/injection, schedule: Q04DX002 (ip), vehicle: saline with Tween-80
[6] = dose: 200.0 mg/kg/injection, schedule: Q01DX005 (ip), vehicle: Klucel (hydroxypropylcellulose) (HPC)
[7] = dose: 100.0 mg/kg/injection, schedule: Q01DX009 (ip), vehicle: Klucel (hydroxypropylcellulose) (HPC)
[8] = dose: 200.0 mg/kg/injection, schedule: Q01DX009 (ip), vehicle: Klucel (hydroxypropylcellulose) (HPC)
[9] = dose: 50.0 mg/kg/injection, schedule: Q01DX009 (ip), vehicle: Klucel (hydroxypropylcellulose) (HPC)
[10] = dose: 50.0 mg/kg/injection, schedule: Q01DX009 (ip), vehicle: saline with Tween-80
[11] = dose: 100.0 mg/kg/injection, schedule: Q01DX009 (ip), vehicle: saline with Tween-80
[12] = dose: 100.0 mg/kg/injection, schedule: Q04DX003 (ip), vehicle: saline with Tween-80
[13] = dose: 200.0 mg/kg/injection, schedule: Q04DX003 (ip), vehicle: saline with Tween-80
[14] = dose: 400.0 mg/kg/injection, schedule: Q04DX003 (ip), vehicle: saline with Tween-80
[15] = dose: 25.0 mg/kg/injection, schedule: Q01DX009 (ip), vehicle: saline with Tween-80
[16] = dose: 100.0 mg/kg/injection, schedule: Q01DX001 (ip), vehicle: saline with Tween-80
[17] = dose: 200.0 mg/kg/injection, schedule: Q01DX001 (ip), vehicle: saline with Tween-80
[18] = dose: 400.0 mg/kg/injection, schedule: Q01DX001 (ip), vehicle: saline with Tween-80
[19] = dose: 60.0 mg/kg/injection, schedule: Q01DX005 (ip), vehicle: saline with Tween-80
[20] = dose: 120.0 mg/kg/injection, schedule: Q01DX005 (ip), vehicle: saline with Tween-80
[21] = dose: 240.0 mg/kg/injection, schedule: Q01DX005 (ip), vehicle: saline with Tween-80

Measured: T/C

CN(C)Cc1ccc2ccccc2c1O
inactive: dose: 50.0 mg/kg/injection, schedule: Q01DX009 (ip), vehicle: saline 104 % of control | dose: 100.0 mg/kg/injection, schedule: Q01DX009 (ip), vehicle: saline 109 % of control

O=C(CN1CCCCCC1)Nc1ccc2c(c1)C(=O)c1ccc(NC(=O)CN3CCCCCC3)cc1C2=O
inactive: [1] 89 % of control | dose: 50.0 mg/kg/injection, schedule: Q01DX005 (ip), vehicle: acid diluted with saline 97 % of control | [2] 89 % of control | dose: 100.0 mg/kg/injection, schedule: Q01DX005 (ip), vehicle: acid diluted with saline 99 % of control | dose: 200.0 mg/kg/injection, schedule: Q01DX005 (ip), vehicle: acid diluted with saline 100 % of control

C#CC(OS(=O)(=O)C(F)(F)F)=C(C)C
inactive: dose: 50.0 mg/kg/injection, schedule: Q01DX005 (ip), vehicle: saline with Tween-80 99 % of control | dose: 100.0 mg/kg/injection, schedule: Q01DX005 (ip), vehicle: saline with Tween-80 100 % of control | dose: 200.0 mg/kg/injection, schedule: Q01DX005 (ip), vehicle: saline with Tween-80 100 % of control

CCOP(=O)(O)OCC.[Sc]
inactive: [3] 93 % of control | [4] 101 % of control | [5] 104 % of control

CC1=CC2C(O)(CC3(CO)OC3C3C4C(C)(C)C4(OC(=O)c4ccccc4)C(OC(=O)c4ccccc4)C(C)C32O)C1=O (stereo not given)
inactive: dose: 50.0 micrograms/kg/injection, schedule: Q01DX005 (ip), vehicle: saline + alcohol 94 % of control | dose: 100.0 micrograms/kg/injection, schedule: Q01DX005 (ip), vehicle: saline + alcohol 97 % of control | dose: 200.0 micrograms/kg/injection, schedule: Q01DX005 (ip), vehicle: saline + alcohol 99 % of control | dose: 400.0 micrograms/kg/injection, schedule: Q01DX005 (ip), vehicle: saline + alcohol 94 % of control | dose: 800.0 micrograms/kg/injection, schedule: Q01DX005 (ip), vehicle: saline + alcohol 105 % of control

CCCN1C(=O)C(C)N(S(=O)(=O)c2ccc(-n3nc(C)cc3C)cc2)C1=S (stereo not given)
inactive: [3] 94 % of control | [4] 102 % of control | [5] 100 % of control

C/C(=N\NC(=S)N1CCC(C)CC1)c1ncccn1
inactive: dose: 12.5 mg/kg/injection, schedule: Q04DX003 (ip), vehicle: Klucel (hydroxypropylcellulose) (HPC) 117 % of control | dose: 25.0 mg/kg/injection, schedule: Q04DX003 (ip), vehicle: Klucel (hydroxypropylcellulose) (HPC) 91 % of control

CC(=O)N(CC1OC2OC(C)(C)OC2C2OC(C)(C)OC12)N=Nc1ccc([N+](=O)[O-])cc1 (stereo not given)
inactive: [1] 100 % of control | [2] 89 % of control | [6] 91 % of control

CC(C)(C)C(=O)CC(=O)C(F)(F)C(F)(F)C(F)(F)F.CC(C)(C)C(=O)CC(=O)C(F)(F)C(F)(F)C(F)(F)F.CC(C)(C)C(=O)CC(=O)C(F)(F)C(F)(F)C(F)(F)F.[Er]
inactive: [7] 97 % of control | [8] 95 % of control | dose: 400.0 mg/kg/injection, schedule: Q01DX009 (ip), vehicle: Klucel (hydroxypropylcellulose) (HPC) 112 % of control

COC(=O)c1cc(C#N)n2ccc3ccccc3c12
inactive: [9] 105 % of control | [7] 104 % of control | [8] 94 % of control

CCC[CH2][Sn]([CH2]CCN(C)C)([CH2]CCN(C)C)[CH2]CCN(C)C
inactive: [10] 100 % of control | [11] 107 % of control

c1ccc2c(c1)/C(=N/c1nccs1)N/C2=N\c1nccs1
inactive: [12] 97 % of control | [13] 93 % of control | [14] 91 % of control

CC1CCCN(c2cc(N(C)C)c([N+](=O)[O-])cc2F)C1 (stereo not given)
inactive: [1] 99 % of control | [2] 107 % of control | [6] 105 % of control

C(=N/NC1=NCCN1)/c1ccnc2ccccc12
inactive: dose: 15.0 mg/kg/injection, schedule: Q01DX005 (ip), vehicle: saline 100 % of control | dose: 30.0 mg/kg/injection, schedule: Q01DX005 (ip), vehicle: saline 98 % of control | dose: 60.0 mg/kg/injection, schedule: Q01DX005 (ip), vehicle: saline 101 % of control and 92 % of control

Cc1cc(Cl)nc2ccc([N+](=O)[O-])cc12
inactive: dose: 100.0 mg/kg/injection, schedule: Q04DX003 (ip), vehicle: saline 92 % of control | dose: 200.0 mg/kg/injection, schedule: Q04DX003 (ip), vehicle: saline 94 % of control | dose: 400.0 mg/kg/injection, schedule: Q04DX003 (ip), vehicle: saline 91 % of control

COc1cc(OC)c(C(=O)CCl)c(O)c1Cl
inactive: [15] 113 % of control | dose: 66.0 mg/kg/injection, schedule: Q01DX009 (ip), vehicle: saline with Tween-80 110 % of control

CC(C)C12CCC3(CCC4C(C)(C(=O)O)CCCC4(C)C3C1)C(CN)C2 (stereo not given)
inactive: dose: 25.0 mg/kg/injection, schedule: Q01DX005 (ip), vehicle: Klucel (hydroxypropylcellulose) (HPC) 101 % of control | [1] 106 % of control | [2] 99 % of control | [6] 100 % of control

CCCNCCC(O)c1cc(C(F)(F)F)nc2c(C(F)(F)F)cccc12 (stereo not given)
inactive: [15] 102 % of control | [10] 110 % of control | [11] 109 % of control

ClCc1nnc(-c2ccccc2)o1
inactive: [9] 100 % of control | [7] 95 % of control

COC(=O)COc1cc2c(cc1C(C)c1ccc(OCc3ccccc3)cc1)OCO2 (stereo not given)
inactive: dose: 50.0 mg/kg/injection, schedule: Q01DX005 (ip), vehicle: distilled water + Tween-80 89 % of control | dose: 100.0 mg/kg/injection, schedule: Q01DX005 (ip), vehicle: distilled water + Tween-80 99 % of control | dose: 200.0 mg/kg/injection, schedule: Q01DX005 (ip), vehicle: distilled water + Tween-80 106 % of control and 88 % of control

CN(C)c1ccc(C2=CC(c3ccc(N(C)C)cc3)(c3ccc(C(F)(F)F)cc3)C=C(c3ccc(N(C)C)cc3)S2)cc1
inactive: dose: 100.0 mg/kg/injection, schedule: Q01DX001 (ip), vehicle: Klucel (hydroxypropylcellulose) (HPC) 101 % of control | dose: 200.0 mg/kg/injection, schedule: Q01DX001 (ip), vehicle: Klucel (hydroxypropylcellulose) (HPC) 92 % of control

Cc1ccc(-n2c(O)c(N=Nc3ccccc3Cl)c(=O)n(-c3ccc(Br)cc3)c2=S)cc1
inactive: [16] 98 % of control | [17] 101 % of control | [18] 96 % of control

O=C(Nc1ccc(Cl)c(Cl)c1)C1C(=O)C(=O)N(c2ccc(Cl)c(Cl)c2)C1=O (stereo not given)
inactive: [9] 97 % of control | [19] 101 % of control | [7] 109 % of control | [20] 100 % of control | [8] 103 % of control | [21] 103 % of control

CCOC(=O)C1=C(C)Nc2cc[nH]c(=O)c2C1c1ccccc1Cl (stereo not given)
inactive: [19] 107 % of control | [20] 103 % of control | [21] 104 % of control

[N-]=[N+]=CC(=O)NCC(=O)NNC(=O)c1ccccc1
inactive: dose: 3.12 mg/kg/injection, schedule: Q01DX009 (ip), vehicle: saline 92 % of control | dose: 6.25 mg/kg/injection, schedule: Q01DX009 (ip), vehicle: saline 87 % of control | dose: 12.5 mg/kg/injection, schedule: Q01DX009 (ip), vehicle: saline 100 % of control | dose: 25.0 mg/kg/injection, schedule: Q01DX009 (ip), vehicle: saline 87 % of control

NC(N)=Nc1ccc(C(=O)Oc2ccc([N+](=O)[O-])cc2)cc1
inactive: [12] 104 % of control | [13] 100 % of control | [14] 95 % of control

O=C(Nc1ccccc1)Oc1cccc(/C=N/S(=O)(=O)c2cccc([N+](=O)[O-])c2)c1
inactive: [10] 93 % of control | [11] 97 % of control | dose: 200.0 mg/kg/injection, schedule: Q01DX009 (ip), vehicle: saline with Tween-80 98 % of control

OCCCCc1ccccc1
inactive: [16] 104 % of control | [17] 100 % of control | [18] 100 % of control

CC1(C)NC(=O)N(CCCCCCN2C(=O)NC(C)(C)C2=O)C1=O
inactive: [1] 94 % of control | [2] 102 % of control | dose: 400.0 mg/kg/injection, schedule: Q01DX005 (ip), vehicle: Klucel (hydroxypropylcellulose) (HPC) 90 % of control
